Assay results reported in EP4603105A1, “PHARMACEUTICAL COMPOSITION CONTAINING CYCLIC COMPOUND HAVING SELECTIVE KRAS INHIBITORY EFFECT AGAINST HRAS AND NRAS” (CHUGAI SEIYAKU KABUSHIKI KAISHA, priority 2022, dated 2024).
Where a SMILES comes first, the peptide text is derived from it. Bridges are numbered along the chain shown (N, C = ends). [ ]: non-standard residue; d: D form. The star is where a group is joined. hPhe(3-Cl-4-CF3) = N[C@@H](CCc1ccc(C(F)(F)F)c(Cl)c1)C(=O)O; NPrPhe(4-CF3) = CCCN[C@@H](Cc1ccc(C(F)(F)F)cc1)C(=O)O; NEtPhe(4-F) = CCN[C@@H](Cc1ccc(F)cc1)C(=O)O; NMeGly(cPent) = CN[C@H](C(=O)O)C1CCCC1; Hyp = O=C(O)[C@@H]1C[C@@H](O)CN1; NMeD = CN[C@@H](CC(=O)O)C(=O)O; NMeL = CN[C@@H](CC(C)C)C(=O)O; Morpholide = C1CN(*)CCO1; NMeA = CN[C@@H](C)C(=O)O; Ac5c = NC1(C(=O)O)CCCC1; Aze = O=C(O)[C@@H]1CCN1; Ac4c = NC1(C(=O)O)CCC1; Ac3c = NC1(C(=O)O)CC1; Sar = CNCC(=O)O

Legend:
[1] = test system: human lung cancer strain NCI-H441; assay type: cell-based
In short: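 Step one: dispense the test compound in serial DMSO dilutions. Step three: add the reagent and measure […].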

[2] = target: GDP-bound NRAS wild-type protein (Homo sapiens, UniProt P01111); assay: Binding to NRAS by surface plasmon resonance (SPR), KD and KD ratio to KRAS
In short: (§1)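 Captured GDP-RAS (~100–300 RU) was exposed to increasing compound concentrations, 75 s per step, in running buffer with 10 µM GDP, 10 mM MgCl2 and 4% DMSO at pH 7.4.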

HRAS wild-type protein = HRAS wild-type protein (Homo sapiens, UniProt P01112); assay: Binding to HRAS by surface plasmon resonance (SPR), KD and KD ratio to KRAS
In short: as §1

[3] = ratio of KD for GDP-bound NRAS wild-type protein to KD for KRAS
[4] = ratio of KD for HRAS wild-type protein to KD for KRAS
[5] = ratio of the KD value with respect to GDP-bound NRAS wild-type protein to the KD value with respect to KRAS
[6] = ratio of the KD value with respect to HRAS wild-type protein to the KD value with respect to KRAS

GDP-bound NRAS wild-type protein, sequence (P01111 whole entry): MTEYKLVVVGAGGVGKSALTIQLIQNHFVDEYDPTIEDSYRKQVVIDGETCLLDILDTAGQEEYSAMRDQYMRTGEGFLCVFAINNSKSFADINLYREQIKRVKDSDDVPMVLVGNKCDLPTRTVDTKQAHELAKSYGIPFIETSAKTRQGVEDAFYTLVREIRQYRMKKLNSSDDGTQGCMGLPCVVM
HRAS wild-type protein, sequence (P01112 whole entry): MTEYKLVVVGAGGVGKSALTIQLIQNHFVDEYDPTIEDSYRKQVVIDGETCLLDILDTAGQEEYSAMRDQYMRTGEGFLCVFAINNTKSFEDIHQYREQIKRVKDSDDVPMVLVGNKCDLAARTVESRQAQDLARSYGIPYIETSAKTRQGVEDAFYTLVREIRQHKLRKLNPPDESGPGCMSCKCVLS

Row | IC50 [1] [nM] | Compound | NRAS /KRAS [2, 3] | HRAS /KRAS (HRAS wild-type protein; [4]) | NRAS /KRAS [2, 5] | HRAS /KRAS (HRAS wild-type protein; [6])
1 | 3.9 | CC[C@H](C)[C@@H]1NC(=O)[C@H](CC(C)C)N(C)C(=O)C[C@@H](C(=O)N2CCOCC2)N(C)C(=O)[C@H](C2CCCC2)N(C)C(=O)C2(CCCC2)NC(=O)[C@@H]2CCCN2C(=O)[C@H](CCc2ccc(C(F)(F)F)c(Cl)c2)NC(=O)CN(C)C(=O)[C@H](Cc2ccc(F)cc2)N(CC)C(=O)[C@@H]2CCN2C(=O)[C@H](C)N(C)C1=O [PP0218] ([NMeL]I[NMeA][Aze][NEtPhe(4-F)][Sar][hPhe(3-Cl-4-CF3)]P[Ac5c][NMeGly(cPent)][NMeD]-Morpholide; lactam N-11) | C (A compound having a KD ratio of 0.1 or more and less than 3 is denoted as C) | C (A compound having a KD ratio of 0.1 or more and less than 3 is denoted as C) |  | 
2 | 2 | CCCN1C(=O)[C@@H]2CCN2C(=O)[C@H](C)N(C)C(=O)[C@H]([C@@H](C)CC)NC(=O)[C@H](CC(C)C)N(C)C(=O)C[C@@H](C(=O)N2CCOCC2)N(C)C(=O)[C@H](C2CCCC2)N(C)C(=O)C2(CC2)NC(=O)[C@@H]2CCCN2C(=O)[C@H](CCc2ccc(C(F)(F)F)c(Cl)c2)NC(=O)CN(C)C(=O)[C@@H]1Cc1ccc(C(F)(F)F)cc1 [PP0224] ([NMeL]I[NMeA][Aze][NPrPhe(4-CF3)][Sar][hPhe(3-Cl-4-CF3)]P[Ac3c][NMeGly(cPent)][NMeD]-Morpholide; lactam N-11) | C (A compound having a KD ratio of 0.1 or more and less than 3 is denoted as C) | B (a compound having 3 or more and less than 10 is denoted as B) |  | 
3 | 80.2 | CCCN1C(=O)CN(C)C(=O)CNC(=O)[C@H]([C@@H](C)CC)NC(=O)[C@H](CC(C)C)N(C)C(=O)C[C@@H](C(=O)N(C)C)NC(=O)[C@H](C2CCCC2)N(C)C(=O)C2(CCC2)NC(=O)[C@@H]2C[C@@H](OCC)CN2C(=O)[C@H](CCc2ccc(C(F)(F)F)c(Cl)c2)NC(=O)CN(C)C(=O)[C@@H]1Cc1ccc(C(F)(F)F)cc1 [PP0366] ([NMeL]IG[Sar][NPrPhe(4-CF3)][Sar][hPhe(3-Cl-4-CF3)][Hyp](Et)[Ac4c][NMeGly(cPent)]D-NMe2; lactam N-11) | B (a compound having 3 or more and less than 10 is denoted as B) | B (a compound having 3 or more and less than 10 is denoted as B) |  | 
4 | 15.6 | CCC[C@H]1C(=O)N[C@@H]([C@@H](C)CC)C(=O)N(C2CC2)CC(=O)N(C)[C@H]2C/C=C\CCN(C2=O)[C@@H](CC2CCC(F)(F)CC2)C(=O)N(C)CC(=O)N[C@@H](CCc2ccc(C(F)(F)F)c(OC)c2)C(=O)N2C[C@H](OCC)C[C@H]2C(=O)N(C)C2(CCC2)C(=O)N(C)[C@@H](C2CCCC2)C(=O)N(C)[C@H](C(=O)N(C)C)CC(=O)N1C [PP2352] |  |  | A (a compound having 10 or more and less than 20 is denoted as A) | A (a compound having 10 or more and less than 20 is denoted as A)
5 | 4.9 | CCO[C@@H]1C[C@H]2C(=O)NC3(CCC3)C(=O)N(C)[C@@H](C3CCCC3)C(=O)N(C)[C@H](C(=O)N(C)CC)CC(=O)N(C)[C@@H](C3CC3)C(=O)N[C@@H]([C@@H](C)CC)C(=O)N(C)CC(=O)N(C)[C@H]3C/C=C\CCN(C3=O)[C@@H](Cc3ccc(C(F)(F)F)cc3)C(=O)N(C)CC(=O)N[C@@H](CCc3ccc(C(F)(F)F)c(OC)c3)C(=O)N2C1 [PP2021] |  |  | A (a compound having 10 or more and less than 20 is denoted as A) | B (a compound having 3 or more and less than 10 is denoted as B)
6 | 96.9 | CCO[C@@H]1C[C@H]2C(=O)NC3(CCC3)C(=O)N(C)[C@@H](C3CCCC3)C(=O)N(C)[C@H](C(=O)N(C)C)CC(=O)N(C)[C@@H](CC)C(=O)N[C@@H]([C@@H](C)CC)C(=O)N3C[C@H](OCC)C[C@H]3C(=O)N(C)[C@H]3C/C=C\CCN(C3=O)[C@@H](Cc3ccc(C(F)(F)F)cc3)C(=O)N(C)CC(=O)N[C@@H](CCc3cc(F)c(C(F)(F)F)c(F)c3)C(=O)N2C1 [PP1057] | A (a compound having 10 or more and less than 20 is denoted as A) | B (a compound having 3 or more and less than 10 is denoted as B) |  | 
